Laboratory results taken from patent US12473305B2, “Pyrazole boronic acid compound, pharmaceutical composition containing same, and uses thereof” (BEIJING SONGRUN PHARMACEUTICAL TECHNOLOGY CO., LTD., priority 2020, dated 2025).
Where a name gives a salt, the structure may show the parent alone.

What was measured:
[1] = tested on: colorectal cancer cell line HCT116; test: CellTiter-Glo tumor cell proliferation, HCT116; type: cell-based, human; conditions: 72 h; for inhibition at 1 µM / inhibition at 10 µM: read-out: Inhibition rate HCT116 (%); for IC50: CellTiter-Glo
Description: (§1) The effect of compounds on tumor cell proliferation was detected by CellTiter-Glo method. Human melanoma cell line A375, non-small cell lung cancer cell line A549, human lung adenocarcinoma cell line H1299, colorectal cancer cell line HCT116, liver cancer cell line HepG2 and gastric cancer cell line MGC80-3 were cultured in vitro. The cells were collected after growing to the logarithmic growth phase, centrifuged at 1000 rpm for 5 min, and suspended in an appropriate amount of medium after discarding the supernatant, and the cell concentration was adjusted to 2×10^4/mL. The cell suspension was inoculated onto the 384-well cell culture plate, with 50 μL per well. After being cultured in a cell incubator (37° C., 5% CO2) for 24 h, 5 μL of drug diluted by the cell culture medium was added into each well for the treatment group. Each drug was provided in triplicate. After 72 h incubation in the incubator, 20 μL of CellTiter-Glo was added into each well, and the relative luminescence unit (RLU) was measured with Multimode Microplate Reader Varioskan Flash (Thermo Scientific, USA) after placed at 37° C. for 20 min, and compared with the RLU of the control group. SigmaPlot 10.0 software was used to calculate the inhibition rate and IC50 value.

[2] = tested on: Human melanoma cell line A375; test: CellTiter-Glo tumor cell proliferation, A375; type: cell-based; conditions: 72 h; for inhibition at 1 µM / inhibition at 10 µM: read-out: Inhibition rate A375 (%); for IC50: CellTiter-Glo
Description: as §1

[3] = tested on: non-small cell lung cancer cell line A549; test: CellTiter-Glo tumor cell proliferation, A549; type: cell-based, human; conditions: 72 h; for inhibition at 1 µM / inhibition at 10 µM: read-out: Inhibition rate A549 (%); for IC50: CellTiter-Glo
Description: as §1

IC50 ([1]; Homo sapiens, HCT-116) | IC50 ([2]; Homo sapiens, A-375) | IC50 ([3]; Homo sapiens, A549) | IC50 [1] | IC50 [2] | IC50 [3] | Compound | inhibition at 1 µM ([1]; Homo sapiens, HCT-116) | inhibition at 10 µM ([1]; Homo sapiens, HCT-116) | inhibition at 1 µM ([2]; Homo sapiens, A-375) | inhibition at 10 µM ([2]; Homo sapiens, A-375) | inhibition at 1 µM ([3]; Homo sapiens, A549) | inhibition at 10 µM ([3]; Homo sapiens, A549)
– | – | – | – | – | – | CC(C)C[C@H](NC(=O)Cn1nc(-c2ccccc2OS(=O)(=O)c2cccc(C(F)(F)F)c2)cc1-c1cccc(Br)c1)B(O)O [Compound 14, (R)-(1-(2-(5-(3-bromophenyl)-3-(2-(((3-(trifluoromethyl)phenyl)sulfonyl)oxy)phenyl)-1H-pyrazol-1-yl)acetamido)-3-methylbutyl)boronic acid] | 9.9% | 9.2% | 16.5% | 50.4% | 10.8% | 8%
700 nM | 2600 nM | 1.06 µM | – | – | – | CC(C)C[C@H](NC(=O)Cn1nc(-c2cccc(OS(=O)(=O)c3cccc(C(F)(F)F)c3)c2)cc1-c1ccccc1)B(O)O [Compound 11, (R)-(3-methyl-1-(2-(5-phenyl-3-(3-(((3-(trifluoromethyl)phenyl)sulfonyl)oxy)phenyl)-1H-pyrazol-1-yl)acetamido)butyl)boronic acid] | 95.4% | 98.4% | 90.2% | 98.8% | 63.4% | 90.3%
– | – | – | – | – | – | CC(C)C[C@H](NC(=O)Cn1nc(-c2ccccc2OS(=O)(=O)c2cccc(C(F)(F)F)c2)cc1-c1ccco1)B(O)O [Compound 24, (R)-(1-(2-(5-(furan-2-yl)-3-(2-(((3-(trifluoromethyl)phenyl)sulfonyl)oxy)phenyl)-1H-pyrazol-1-yl)acetamido)-3-methylbutyl)boronic acid] | 4.9% | 97.1% | 14.9% | 97% | 1.9% | 66.7%
– | – | – | – | – | – | CC(C)[C@H](NC(=O)Cn1nc(-c2ccccc2OS(=O)(=O)c2cccc(C(F)(F)F)c2)cc1-c1ccccc1Br)B(O)O [Compound 15, (R)-(1-(2-(5-(2-bromophenyl)-3-(2-(((3-trifluoromethylphenyl)sulfonyl)oxy)phenyl)-1H-pyrazol-1-yl)acetamido)isobutyl)boronic acid] | 5% | 3.6% | 3% | 67.2% | 7.5% | 1.5%
– | – | – | – | – | – | CC(C)C[C@H](NC(=O)Cn1nc(-c2ccccc2OS(=O)(=O)c2cccc(C(F)(F)F)c2)cc1-c1ccc(S(C)(=O)=O)cc1)B(O)O [Compound 19, (R)-(1-(2-(5-(4-(methylsulfonyl)phenyl)-3-(2-(((3-(trifluoromethyl)phenyl)sulfonyl)oxy)phenyl)-1H-pyrazol-1-yl)acetamido)-3-methylbutyl)boronic acid] | 14.5% | 33.9% | 4.1% | 45.2% | 8.7% | 7.9%
920 nM | 1430 nM | 3.64 µM | – | – | – | CC(C)C[C@H](NC(=O)Cn1nc(-c2cccc(OCCN(C)C)c2)cc1-c1ccccc1)B(O)O [Compound 29, (R)-(1-(2-(3-(3-(2-(dimethylamino)ethoxy)phenyl)-5-phenyl-1H-pyrazol-1-yl)acetamido)-3-methylbutyl)boronic acid hydrochloride] | – | – | – | – | – | –
– | – | – | 3410 nM | 8250 nM | 8.68 µM | CC(C)C[C@H](NC(=O)Cn1nc(-c2cccc(OS(=O)(=O)c3cccc(C(F)(F)F)c3)c2)cc1-c1ccccc1)B(O)O [Compound 28] | – | – | – | – | – | –
– | – | – | – | – | – | CC(C)C[C@H](NC(=O)Cn1nc(-c2ccccc2OS(=O)(=O)c2cccc(C(F)(F)F)c2)cc1-c1ccc(C#N)cc1)B(O)O [Compound 18, (R)-(1-(2-(5-(4-cyanophenyl)-3-(2-(((3-(trifluoromethyl)phenyl)sulfonyl)oxy)phenyl)-1H-pyrazol-1-yl)acetamido)-3-methylbutyl)boronic acid] | 5.5% | 89.7% | 4.6% | 81.1% | 7.1% | 29%
– | – | – | – | – | – | CC(C)C[C@H](NC(=O)Cn1nc(-c2ccc(OS(=O)(=O)c3cccc(C(F)(F)F)c3)cc2)cc1-c1ccccc1)B(O)O [Compound 12, (R)-(3-methyl-1-(2-(5-phenyl-3-(4-(((3-(trifluoromethyl)phenyl)sulfonyl)oxy)phenyl)-1H-pyrazol-1-yl)acetamido)butyl)boronic acid] | 45.8% | 96.3% | 83% | 98.7% | 45.5% | 85.3%
– | – | – | – | – | – | CC(C)C[C@H](NC(=O)Cn1nc(-c2ccccc2OS(=O)(=O)c2cccc(Br)c2)cc1-c1ccccc1)B(O)O [Compound 6, (R)-(1-(2-(3-(2-(((3-bromophenyl)sulfonyl)oxy)phenyl)-5-phenyl-1H-pyrazol-1-yl)-acetamido)-3-methylbutyl)boronic acid] | 5.9% | 97% | 7% | 95% | 13.3% | 64.7%
– | – | – | – | – | – | CC(C)C[C@H](NC(=O)Cn1nc(-c2ccccc2OS(=O)(=O)c2cccs2)cc1-c1ccccc1)B(O)O [Compound 9, (R)-(3-methyl-1-(2-(5-phenyl-3-(2-((thiophen-2-ylsulfonyl)oxy)phenyl)-1H-pyrazol-1-yl)acetamido)butyl)boronic acid] | 2.9% | 98.3% | 4.6% | 98.3% | 3.6% | 83.2%
500 nM | 690 nM | 2.19 µM | – | – | – | CC(C)C[C@H](NC(=O)Cn1nc(-c2cccc(OCCCN3CCOCC3)c2)cc1-c1ccccc1)B(O)O [Compound 31, (R)-(3-methyl-1-(2-(3-(3-(3-morpholinopropoxy)phenyl)-5-phenyl-1H-pyrazol-1-yl)acetamido)butyl)boronic acid hydrochloride] | – | – | – | – | – | –
– | – | – | – | – | – | CC(C)C[C@H](NC(=O)Cn1nc(-c2ccccc2OS(=O)(=O)c2cccc(C(F)(F)F)c2)cc1-c1ccc(Cl)cc1)B(O)O [Compound 17, (R)-(1-(2-(5-(4-chlorophenyl)-3-(2-(((3-(trifluoromethyl)phenyl)sulfonyl)oxy)phenyl)-1H-pyrazol-1-yl)acetamido)-3-methylbutyl)boronic acid] | 13.6% | 70.6% | 8.3% | 56.1% | 0.3% | 1.9%
– | – | – | 1410 nM | 2590 nM | 3.07 µM | Cc1cc(-c2cccc(NS(=O)(=O)c3cccc(C(F)(F)F)c3)c2)nn1CC(=O)N[C@@H](CC(C)C)B(O)O [Compound 26] | – | – | – | – | – | –
– | – | – | – | – | – | CC(C)C[C@H](NC(=O)Cn1nc(-c2ccccc2OS(=O)(=O)c2ccc(C(F)(F)F)cc2)cc1-c1ccccc1)B(O)O [Compound 2, (R)-(3-methyl-1-(2-(5-phenyl-3-(2-(((4-(trifluoromethyl)phenyl)sulfonyl)oxy)phenyl)-1H-pyrazol-1-yl)acetamido)butyl)boronic acid] | 1.4% | 97.9% | 8.6% | 97.8% | 15.1% | 61.7%
